This passage reports EC50 results from patent publication US10851093B2, “Tyrosine kinase inhibitors” (Rigel Pharmaceuticals, Inc., priority 2018, dated 2020).

For one assay, the target named is T1, Axl (Homo sapiens, UniProt P30530).
T1 construct: Seed HUVECs (10K cells/well) in EBM-2 complete media; host or cells: HUVEC
T1 sequence (P30530 26-894): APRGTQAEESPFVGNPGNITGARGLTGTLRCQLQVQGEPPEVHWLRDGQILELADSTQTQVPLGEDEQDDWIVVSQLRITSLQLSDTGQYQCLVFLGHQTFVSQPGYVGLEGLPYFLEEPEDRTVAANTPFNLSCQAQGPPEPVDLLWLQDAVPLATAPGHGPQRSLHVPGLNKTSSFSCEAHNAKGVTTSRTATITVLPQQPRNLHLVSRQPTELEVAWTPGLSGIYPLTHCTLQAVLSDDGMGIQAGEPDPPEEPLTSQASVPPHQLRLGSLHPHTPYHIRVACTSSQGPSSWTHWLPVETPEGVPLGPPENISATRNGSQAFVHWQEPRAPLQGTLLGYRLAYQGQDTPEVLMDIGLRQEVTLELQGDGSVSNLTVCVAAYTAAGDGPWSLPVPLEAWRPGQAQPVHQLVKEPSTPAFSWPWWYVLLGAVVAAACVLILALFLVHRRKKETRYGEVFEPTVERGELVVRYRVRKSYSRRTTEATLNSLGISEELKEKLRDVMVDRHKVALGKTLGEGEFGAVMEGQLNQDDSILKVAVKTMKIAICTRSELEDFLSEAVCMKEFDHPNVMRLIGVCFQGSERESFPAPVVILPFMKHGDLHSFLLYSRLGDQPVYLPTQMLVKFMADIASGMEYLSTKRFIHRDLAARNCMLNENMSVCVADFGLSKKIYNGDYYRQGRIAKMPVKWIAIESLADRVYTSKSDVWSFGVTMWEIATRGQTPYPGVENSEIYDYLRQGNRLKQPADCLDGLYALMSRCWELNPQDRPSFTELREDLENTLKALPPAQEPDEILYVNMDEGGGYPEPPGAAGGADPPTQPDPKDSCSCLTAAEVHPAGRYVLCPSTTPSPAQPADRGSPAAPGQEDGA
The assay can be described thus: Phospho-AKT HTRF, HUVEC, Axl ABX-L, 8 pt. It counts as cell-based. To be noted: HUVEC cells, pAkt(Ser473) HTRF, Axl ABX-L stimulation. On the procedure:
[The source words this procedure for another target and reports this target under the same test.] (§1) Example 13: PAKT HTRF-HUVEC Assay
(§2) Seed HUVECs (10K cells/well) in EBM-2 complete media (EBM-2 basal medium plus EGM-2 BulletKit supplements) overnight at 37° C., 5% CO2 in Costar 96-well white clear-bottom plates. Remove culture media and starve cells for 3-4 hours in 50 μL/well EBM-2 basal medium. Perform serial dilution of compounds in DMSO from 2.5 mM in 4-fold dilutions, and then dilute 1:125 in EBM-2 basal media. Mix 50 μL/well 2× compounds with 50 μL/well HUVECs in duplicate in Costar 96-well white clear-bottom plates. Incubate plates for 1 hour at 37° C., 5% CO2. Cross-link anti-human MerTK antibody to Biotin-SP-conjugated anti-mouse IgG antibody (1:1) to give final concentrations of 5 μg/mL of anti-human MerTK-XL. Stimulate HUVECs with 25 μL/well 5× anti-human MerTK-XL to give final concentrations of 1 ug/mL for 10 minutes at 37° C., 5% CO2. Completely remove media and lyse HUVECs with 40 uL:WELL per well of Cisbio HTRF 1× lysis buffer. Performed pAkt(Ser473) HTRF assay in ProxiPlate-384 Plus, white 384-shallow well microplate according to the vendor protocol and read plates with a SpectralMax Paradigm plate reader. Enter the HTRF values into Athena (Rigel) for curve fitting, EC50 calculation, and database storage.
Background: TR-FRET usually uses a lanthanide donor and a delayed reading to cut background.

The next assay has as its target T2, MerTK (Homo sapiens, UniProt Q12866).
T2 construct: Seed HUVECs (10K cells/well) in EBM-2 complete media; host or cells: HUVEC
T2 sequence (Q12866 21-999): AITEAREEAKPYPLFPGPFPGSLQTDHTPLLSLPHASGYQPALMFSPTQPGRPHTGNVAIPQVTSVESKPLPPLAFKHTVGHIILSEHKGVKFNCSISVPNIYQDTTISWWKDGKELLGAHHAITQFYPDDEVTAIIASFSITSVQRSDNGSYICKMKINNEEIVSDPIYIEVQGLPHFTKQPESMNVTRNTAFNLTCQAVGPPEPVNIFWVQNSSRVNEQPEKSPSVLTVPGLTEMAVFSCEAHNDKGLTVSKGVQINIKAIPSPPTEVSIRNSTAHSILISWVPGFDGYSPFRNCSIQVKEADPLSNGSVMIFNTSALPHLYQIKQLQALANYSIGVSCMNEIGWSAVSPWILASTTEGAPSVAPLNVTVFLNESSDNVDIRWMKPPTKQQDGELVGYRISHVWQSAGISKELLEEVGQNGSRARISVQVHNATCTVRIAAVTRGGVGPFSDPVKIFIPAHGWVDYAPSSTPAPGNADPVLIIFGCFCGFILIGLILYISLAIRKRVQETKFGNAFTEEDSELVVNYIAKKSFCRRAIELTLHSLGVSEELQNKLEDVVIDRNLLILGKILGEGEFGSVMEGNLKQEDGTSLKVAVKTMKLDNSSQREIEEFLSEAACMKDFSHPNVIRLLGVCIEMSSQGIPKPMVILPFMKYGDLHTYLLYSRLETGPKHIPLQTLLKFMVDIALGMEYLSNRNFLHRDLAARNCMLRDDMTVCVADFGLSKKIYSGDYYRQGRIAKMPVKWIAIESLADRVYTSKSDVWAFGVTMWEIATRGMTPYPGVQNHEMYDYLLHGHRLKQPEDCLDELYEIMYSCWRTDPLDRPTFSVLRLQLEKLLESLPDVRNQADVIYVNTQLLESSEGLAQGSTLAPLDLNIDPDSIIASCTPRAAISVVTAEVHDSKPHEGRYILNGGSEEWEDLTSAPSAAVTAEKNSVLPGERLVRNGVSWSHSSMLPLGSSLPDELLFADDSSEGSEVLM
The assay can be described thus: Phospho-AKT HTRF, HUVEC, Mer-XL, 8 pt (pAKT HTRF-HUVEC assay, anti-human MerTK-XL stimulation). To be noted: HUVEC cells, pAkt(Ser473) HTRF, anti-human MerTK-XL stimulation 1 ug/mL 10 minutes. It counts as cell-based. As to the method: as §1, §2

On to `COc1cc2ncnc(Oc3ccc(NC(=O)c4nc(-c5ccccc5)c5c(n4)C4CCN5CC4)nc3)c2cc1OC` [Compound 49, N-(5-((6,7-dimethoxyquinazolin-4-yl)oxy)pyridin-2-yl)-4-phenyl-7,8-dihydro-6H-5,8-ethanopyrido[3,2-d]pyrimidine-2-carboxamide], for which the values for the 50% effective concentration (EC50) at Axl and at MerTK were 26.8 nM and 15.4 nM, respectively.
With `COc1cc2c(Oc3ccc(NC(=O)c4csc(-c5ccccc5)n4)nc3)ccnc2cc1OCCCN1CCOCC1` [Compound 42, N-(5-((6-methoxy-7-(3-morpholinopropoxy)quinolin-4-yl)oxy)pyridin-2-yl)-2-phenylthiazole-4-carboxamide], the EC50 (commonly the concentration at which the effect is half-maximal) on Axl worked out at 50 nM; at MerTK, 47.2 nM.
Consider `COc1cc2c(Oc3ccc(NC(=O)c4nc(-c5ccccc5)c5c(n4)C4CCN5CC4)cc3F)ccnc2cc1OCCCN1CCOCC1` [Compound 36, N-(3-fluoro-4-((6-methoxy-7-(3-morpholinopropoxy)quinolin-4-yl)oxy)phenyl)-4-phenyl-7,8-dihydro-6H-5,8-ethanopyrido[3,2-d]pyrimidine-2-carboxamide], for which the results for the EC50 on Axl and on MerTK were 5.8 nM and 9.5 nM, respectively.
On the same counts, the results for `COc1cc2c(Oc3ccc(NC(=O)c4cc(C(F)(F)F)ccn4)nc3)ccnc2cc1OCCCN1CCOCC1` [Compound 34, N-(5-((6-Methoxy-7-(3-morpholinopropoxy)quinolin-4-yl)oxy)pyridin-2-yl)-4-(trifluoromethyl)picolinamide] are 327 nM and 183 nM.
In the same order, the values of `COc1cc2c(Oc3ccc(NC(=O)c4cccc(N5CCCCC5)n4)nc3)ccnc2cc1OCCCN1CCOCC1` [Compound 23, N-(5-((6-methoxy-7-(3-morpholinopropoxy)quinolin-4-yl)oxy)pyridin-2-yl)-6-(piperidin-1-yl)picolinamide] are 66.8 nM and 13 nM.
On the same counts, the results for `COc1cc2c(Oc3ccc(NC(=O)c4cccc(N5CCC(F)(F)CC5)n4)nc3)ccnc2cc1OCCCN1CCOCC1` [Compound 28, 6-(4,4-difluoropiperidin-1-yl)-N-(5-((6-methoxy-7-(3-morpholinopropoxy)quinolin-4-yl)oxy)pyridin-2-yl)picolinamide] are 38.7 nM and 6.1 nM.
For `COc1cc2c(Oc3ccc(NC(=O)c4cc(-c5ccccc5)c5c(n4)C4CCN5CC4)nc3)ccnc2cc1OCCCN1CCOCC1` [Compound 7, N-(5-((6-Methoxy-7-(3-morpholinopropoxy)quinolin-4-yl)oxy)pyridin-2-yl)-8-phenyl-3,4-dihydro-2H-1,4-ethano-1,5-naphthyridine-6-carboxamide, hydrochloric acid], the EC50 at Axl was 18.2 nM; at MerTK, 10 nM.
On the same counts, the results for `COc1cc2c(Oc3ccc(NC(=O)c4csc(N5CCC(O)CC5)n4)nc3)ccnc2cc1OCCCN1CCOCC1` [Compound 41, 2-(4-hydroxypiperidin-1-yl)-N-(5-((6-methoxy-7-(3-morpholinopropoxy)quinolin-4-yl)oxy)pyridin-2-yl)thiazole-4-carboxamide] are 2120 nM and 640 nM.
`COc1cc2c(Oc3ccc(NC(=O)c4nc(-c5ccccc5)c5ccccc5n4)nc3)ccnc2cc1OCCCN1CCOCC1` [Compound 5, N-(5-((6-Methoxy-7-(3-morpholinopropoxy)quinolin-4-yl)oxy)pyridin-2-yl)-4-phenylquinazoline-2-carboxamide]: the EC50 stood at 1.4 nM at Axl and 2.2 nM on MerTK.
Consider `COc1cc2c(Oc3ccc(NC(=O)c4csc(N5CCCCC5)n4)nc3)ccnc2cc1OCCCN1CCOCC1` [Compound 46, N-(5-((6-methoxy-7-(3-morpholinopropoxy)quinolin-4-yl)oxy)pyridin-2-yl)-2-(piperidin-1-yl)thiazole-4-carboxamide], for which the concentration for a half-maximal effect (EC50) at Axl was determined as 20.9 nM; on MerTK it was 12.8 nM.
On the same counts, the results for `COc1cc2c(Oc3ccc(NC(=O)c4cc(N5CCCCC5)ccn4)nc3)ccnc2cc1OCCCN1CCOCC1` [Compound 13, N-(5-((6-methoxy-7-(3-morpholinopropoxy)quinolin-4-yl)oxy)pyridin-2-yl)-4-(piperidin-1-yl)picolinamide] are 53.8 nM and 20.2 nM.
On the same counts, the results for `COc1cc2c(Oc3ccc(NC(=O)c4ncc(-c5ccccc5)s4)nc3)ccnc2cc1OCCCN1CCOCC1` [Compound 48, N-(5-((6-methoxy-7-(3-morpholinopropoxy)quinolin-4-yl)oxy)pyridin-2-yl)-5-phenylthiazole-2-carboxamide] are 344 nM and 238 nM.
As to `COc1cc2c(Oc3ccc(NC(=O)c4nc(-c5ccccc5)c5c(n4)C4CCN5CC4)nc3)ccnc2cc1OCCCN1CCOCC1` [Compound 6, N-(5-((6-methoxy-7-(3-morpholinopropoxy)quinolin-4-yl)oxy)pyridin-2-yl)-4-phenyl-7,8-dihydro-6H-5,8-ethanopyrido[3,2-d]pyrimidine-2-carboxamide, hydrochloric acid], the EC50 at Axl is 3.3 nM; on MerTK, 2.5 nM.
On to `COc1cc2c(Oc3ccc(NC(=O)c4cccc(N5CC(F)(F)C5)n4)nc3)ccnc2cc1OCCCN1CCOCC1` [Compound 30, 6-(3,3-difluoroazetidin-1-yl)-N-(5-((6-methoxy-7-(3-morpholinopropoxy)quinolin-4-yl)oxy)pyridin-2-yl)picolinamide], for which the EC50 on Axl stood at 110 nM; on MerTK, 9.4 nM.
In the same order, the values of `COc1cc2c(Oc3ccc(NC(=O)c4csc(-c5ccc(F)cc5)n4)nc3)ccnc2cc1OCCCN1CCOCC1` [Compound 43, 2-(4-fluorophenyl)-N-(5-((6-methoxy-7-(3-morpholinopropoxy)quinolin-4-yl)oxy)pyridin-2-yl)thiazole-4-carboxamide] are 55.2 nM and 44.9 nM.
